Assays:
[1] = system: red blood cell ghosts (plasma membrane); assay: Membrane retention coefficient (MRC) in red blood cell ghosts; format: binding; conditions: 24 hr; Table II
Protocol: Determination of Membrane Retention Coefficient
The membrane retention coefficient (MRC) provides information regarding how well a given compound is retained in the plasma membrane of a cell and is determined as described below.
Generation of red blood cell ghosts for use as a model membrane is achieved by centrifuging whole blood at 300×g for 15 minutes, removal of the plasma and resuspension of the cell pellet in 0.83% (w/v) ammonium chloride. The ghosts are pelleted from the ammonium chloride by centrifuging at 10,000×g for 10 minutes. This ammonium chloride washing procedure is repeated a minimum of five times to insure that complete release of hemoglobin from the cells has occured. The ghosts are labeled with the compound in question at a concentration allowing for detection of the labeled ghosts by instrumental analysis or fluorescent microscopic methods, and at a concentration similar to those that would be used to label cells for a specific application as described above. For the determinations hereinbelow stock solutions of the compounds in question were prepared in ethanol at a molar concentration of 2×10^-3, and working dilutions of the compounds were prepared in iso-osmotic sucrose (52 g/500 ml distilled water). After incubation of the ghosts at an approximate concentration of 1×10^9 ghosts/ml in the working dilutions of the compounds for 10 minutes, the samples were centrifuged at 10,000×g to pellet the ghosts and the staining solution was aspirated from the samples. The labeled ghosts were resuspended in 1 ml of phosphate buffered saline solution containing 10% fetal bovine serum (PBS-FBS). Triplicate 20 ul aliquots were removed from each sample for the determination of the amount of total compound present. The samples were centrifuged as described above and triplicate 20 ul aliquots were removed from the supernatant for quantitative determination of amount of unbound compound present.
After sampling, the supernatant was aspirated and the red cell ghost pellet was resuspended in 1.0 ml of the PBS-FBS, which was once again sampled as described above. This procedure was repeated at least six times, allowing for detection of rapidly released compounds and was monitored after times equal to or greater than 24 hours to allow for the detection of more slowly released compounds. For the determination of the amount of compound present in each sample, the 20 ul aliquots were extracted into 3.0 ml of n-butanol by shaking. The samples were centrifuged at 3000×g to remove membrane debris and the butanol fractions were assayed for compound concentration. Fluorescent compounds are assayed in this manner using peak excitation and emission wave lengths for the particular compounds being assayed to determine the fluorescence units for each sample.
The determination of the amount of compound present in each sample as described above allows for the calculation of the MRC for each washing or fixed time point. The value is obtained by the following formula: […]
wherein CT represents the amount of compound present (in units determined by the method used to assay the compound) in the total sample and CS represents the amount of compound present in the supernatant sample for that particular time point. The comparison of the MRC values defines criteria for identification of the compounds of this invention, these criteria being: 1) the MRC values determined for each washing steps should have a value of at least about 90 and 2) the percent difference between MRC values over at least a 24 hour time period should be less than about 10%. [drawing 14]
The data provided in Table I below are the results from one experiment and serve as an example of the MRC determination. […]

membrane ghosts = assay: Membrane binding stability (MBS) assay in membrane ghosts with 5% albumin; conditions: 24 hours
In short: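 Labeled membrane ghosts were suspended at decreasing numbers in a fixed volume of saline with 5% serum albumin. After 24 hours, label released into the supernatant after pelleting was expressed as percent of total. MBS is the area under the percent-retention versus ghosts/ml curve between 5×10^7 and 4×10^8 ghosts/ml.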

[2] = system: cells (red cell membranes); assay: Number of molecules of compound incorporated per cell; format: cell-based; conditions: 10 μM compounds
Protocol: Number of molecules of compound incorporated per cell was determined for cells labeled with 10 μM compounds. An aliquot of 10^6 cells (10 ul) was withdrawn from the washed cells after final resuspension and counting, compounds were extracted from the cell membrane by admixture with 250 μl of 100% ethanol, and the fluorescence intensity of 200 μl of the extract was measured using a Fluoroskan II fluorescence microplate reader and filter combination. Concentration of compound in each extract was determined from a calibration curve of known compound concentrations made up in 100% ethanol and measured on the Fluoroskan II. Number of molecules of compound per cell was then calculated from the known extract concentration, total volume of extract, and known number of cells extracted. Calculated values were (4.0±0.4)×10^6 for compound T (1.3±0.2)×10^6 for compound AA and (2.5±0.7)×10^6 for compound AB.

[3] = system: erythrocyte membrane ghosts; assay: Relative membrane retention in erythrocyte membrane ghosts (iodination study); format: binding; conditions: 24 hours, 37° C., PBS+EDTA+5% BSA
Protocol: Relative membrane retention was determined using erythrocyte membrane ghosts prepared by NH4 Cl lysis (Slezak and Horan, Blood, supra). Ghosts were labeled at 4×10^8 /ml with 10 μM compounds for 5 minutes at room temperature, using previously described procedures. However, post-labeling washes were carried out using PBS containing 1 mM EDTA and 5% BSA. After the final wash, ghosts were resuspended at 4×10^8 /ml in PBS+EDTA+5% BSA and incubated for 24 hours at 37° C. At 24 hours, duplicate 50 μl aliquots were withdrawn from a) the well mixed suspension of ghosts (for determination of total compound present), and b) the supernatant remaining after ghosts were pelleted for 15 minutes at 12,500×g (for determination of unbound compound present). Aliquots were extracted by admixture with 200 μl of 100% ethanol and fluorescence intensity of each extract measured using the Fluoroskan II fluorescence microplate reader. Percent compound retained was calculated as
total compound--unbound compound×100/total compound

synovial cells = assay: Synovial distribution after intra-articular injection; format: in vivo; conditions: 1 hour after injection into the knee, 10 μM
Protocol: To estimate the homogeneity or heterogeneity of incorporation by synovial cells after intra-articular injection, approximately 0.1 mL of a 10 μM solution of an iodide salt of compound T (see Example 2, above) in 300 mOsM pH 7.0 glucose was injected into the knee as described in Example 10. After 1 hour, the animal was sacrificed, and both injected and uninjected knee joints were dissected. Preparation of whole joint cross sections was not feasible because demineralization is required to cut thin sections and demineralizing solvents remove compounds of the invention from tissue. Therefore the infrapatellar fat pads which underlie the kneecap and form one boundary of the synovial cavity were carefully removed, snap frozen on dry ice, and stored at -80° until frozen sections could be prepared. Thick (10μ) cryostat sections were cut, adhered to glass slide, and evaluated by light and fluorescence microscopy.
(The synovial layer is only 1-2 cells thick in a normal joint but becomes thickened due to hyperproliferation in an arthritic joint.) The rest of the tissue was composed primarily of large fat cells.

[4] = In vivo loss of dye from labeled, reinjected erythrocytes; conditions: rabbit, iv
Description: *Half life for loss of dye from rabbit erythrocytes after labeling and

thrombin = thrombin (Homo sapiens, UniProt P00734+P01008); assay: Thrombin inhibition (fibrin generation in diluted human plasma); format: biochemical; conditions: 0.5 nM thrombin; conjugate on ghosts (@1.43×10^7 ghosts/200 ul)
thrombin, sequence (P01008 33-464, one chain of several): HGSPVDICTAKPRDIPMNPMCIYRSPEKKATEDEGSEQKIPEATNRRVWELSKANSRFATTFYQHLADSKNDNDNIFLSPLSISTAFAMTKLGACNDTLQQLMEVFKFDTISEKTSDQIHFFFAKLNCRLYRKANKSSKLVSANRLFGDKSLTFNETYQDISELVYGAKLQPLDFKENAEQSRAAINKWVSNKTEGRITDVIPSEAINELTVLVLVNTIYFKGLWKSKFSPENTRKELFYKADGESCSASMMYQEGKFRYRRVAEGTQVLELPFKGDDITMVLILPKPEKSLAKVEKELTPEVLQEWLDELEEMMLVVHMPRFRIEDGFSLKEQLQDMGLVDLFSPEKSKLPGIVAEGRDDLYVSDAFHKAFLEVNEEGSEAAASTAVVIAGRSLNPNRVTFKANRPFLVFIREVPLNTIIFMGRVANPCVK
Protocol: The concentration response for unconjugated anti-coagulant is provided for comparison. Percentage inhibition of thrombin response (y-axis) is recorded as a function of the molar concentration of compound tested (lower x-axis; log scale), and of the number of carrier cells per test sample (upper x-axis; log scale).
To determine whether the anticoagulative properties of the compounds of the invention were retained when coated on the surface of biomembranes, in vitro studies were performed to assess the ability of the compound of invention to inhibit the coagulation enzyme, thrombin. […] Concentration of compound 21 on ghosts was assessed by placing known numbers of ghosts in microtiter plate wells and comparing the observed fluorescence to the fluorescence produced by known standard concentrations of the compound. […] 211:10 (1987), wherein 100 μl a 1:10 dilution of human plasma in phosphate buffered saline (PBS) buffer, 50 μl of PBS containing varying concentrations of labeled ghosts or standard thrombin inhibitor, and 50 μl of PBS containing a constant amount (0.5 nM) of thrombin were added to microtiter plate wells and absorbance changes at 405 nm were recorded in a spectrophotometric plate reader (Bio-Tek) over a 60 minute period. […] The absorbance changes over time data were plotted and area-under-the-curve measurements performed by computer. […]

myointimal thickening = conditions: cell culture or animals after arterial injury; cited from earlier work
[5] = system: vascular smooth muscle cells (SMC); conditions: cited from earlier work
SMC cell surfaces = conditions: cited from earlier work

Row | MBS (% of max.) (membrane ghosts; Table II) | MBS (membrane ghosts; Table III) | half-life [4] | Molecule | MRC# (at 24 hr.) [1] | Number of molecules of compound incorporated per cell [2] | Percent compound retained [3] | Labeling of infrapatellar fat pad cross sections (synovial cells) | EC50 (thrombin) | Effect of heparin on smooth muscle cells / after arterial injury (myointimal thickening) | Inhibition of cell growth / antiproliferative activity [5] | Binding to SMC cell surfaces (SMC cell surfaces)
1 | 85 ± 1.7 % of max. | 85 ± 1.7% | 130 days | CCCCCCCCCCCCCCCCCCCCCCN1C(=CC=CC2=[N+](CCCCCCCCCCCCCC)c3ccccc3C2(C)C)C(C)(C)c2ccccc21 [T] | 97 ± 0.1 | (4.0±0.4)×10^6 molecules of compound per cell | 91.9±2.9% | bright and relatively homogeneous labeling was essentially confined to the synovial cell layer | – | – | – | –
2 | – | – | – | Heparin | – | – | – | – | 1.03 nM | decreased growth and reduced myointimal thickening and cell proliferation | inhibit the growth of several different cell types, including vascular smooth muscle cells (SMC) | binds to SMC cell surfaces via high affinity binding sites and is taken up intracellularly
